# Assay results published in PMC10759609, “A novel PDPN antagonist peptide CY12-RP2 inhibits melanoma growth via Wnt/β-catenin and modulates the immune cells” (Journal of Experimental & Clinical Cancer Research : CR, 2024).
# Peptide text beside a SMILES is read from it.
# Legend:
# [1] = system: PDPN in A875 cells; experiment: Immunofluorescence binding/co-localization with PDPN, A875; type: cell-based; conditions: 5 μM, 10 h, 37 ℃
# Experimental: Immunofluorescence analysis was used for antigen localization and quantification. For PDPN immunofluorescence staining, melanoma cells (A375, A875) were seeded in coverslips, cultured for 24 h, and fixed using 4% paraformaldehyde for 15 min at room temperature (RT). The cells were then permeabilized with 0.2% Triton X-100 in PBS for 10 min. Cells were blocked using 1% bovine serum albumin (BSA) in PBS for 30 min at RT, and incubated with the primary antibody overnight at 4 ℃. Afterwards, cells were washed three times with PBS containing 0.01% Triton X-100 for 5 min, and incubated with Alexa Fluor 568–conjugated secondary antibodies at RT for 1 h. Lastly, the nuclei were dyed with 4’,6-diamidino-2-phenylindole (DAPI) for 5 min at RT, and the slides were imaged using a NIKON laser scanning confocal microscope. To further verify the specificity binding ability of CY12-RP2 with PDPN, immunofluorescence was detected for analysis in melanoma cells. Briefly, A375 or A875 cells were incubated with CY12-RP2 at a concentration of 5 μM for 10 h at 37 ℃, and then washed with DMEM to remove the unbound peptide. The anti-PDPN primary antibody was then incubated for 4 h at RT. Further experimental procedures were performed as described above. […]
# [2] = system: A875 cells; experiment: Annexin V/PI flow cytometry apoptosis, A875; type: cell-based; conditions: 0, 50, 100, 200 μM, 48 h
# Experimental: In this study, cell apoptosis was analyzed by flow cytometry using a PI/FITC-Annexin V Apoptosis Detection Kit (4A Biotech, Beijing, China). Briefly, melanoma cells were collected and washed with pre-chilled PBS, then resuspended with Annexin V staining buffer. Afterward, fluorescein isothiocyanate (FITC)-Annexin V and PI were stained for 5 min at RT, and then immediately detected using a Beckman flow cytometer. To investigate immune cell infiltration of the lung and spleen in the pulmonary metastasis mouse model, the surface and nuclear antigen staining were performed following the experimental procedure. Fluorescence-labeled mAb against CD3, CD25, CD49b, GranzymeB, CD11b, CD86, and CD206 were purchased from BioLegend (BioLegend, San Diego, CA), and CD4, CD8, and Foxp3 from Tonbo. […] Finally, the samples were measured using flow cytometry.
# Fig. 3 Biopanning of PDPN antagonist peptides. […] B Immunofluorescence staining was performed to quantify the colocalization of CY12-RP2 and PDPN protein in melanoma cell lines (A375, A875). […] D Suppression efficiency of melanoma cells growth by CY12-RP2 was measured by CCK8 assay at various concentrations for 24, 48 or 72 h, respectively. […] G, H The 3D cellular spheres were treated with the set concentrations of CY12-RP2 for 5 days and cell morphology was assessed (G), relative spheroid diameter was measured (H). […]
# [3] = system: melanoma cells; experiment: Melanoma cell / stimulated PBMC co-culture killing; type: cell-based; conditions: PBMC ratios 0%-50%, 48 h, crystal violet
# Experimental: PBMCs (Shenzhen People's Hospital. Shenzhen, China)) from a healthy donor were isolated using a density gradient centrifugation procedure. Firstly, the immune cell proportions analysis of PBMCs was measured using flow cytometry. We then investigated the effect of CY12-RP2 on the cytokines in PBMCs using ELISA assays. Briefly, PBMCs (5 × 10^5 cells/well) were cultured in 24-well plates with RPMI1640 containing 10% FBS for 24 h, and the cells were stimulated with CY12-RP2 (50 µM) for 48 h. Afterward, supernatants were collected for subsequent assays. […] The experimental results were then observed by crystal violet staining after 48 h.
# [4] = system: cytokines in mouse plasma; experiment: Plasma cytokines in lung metastasis model (ELISA); type: in vivo, BALB/c mice; conditions: lung metastases model, vs control
# Experimental: The levels of major inflammatory cytokines, including TNF-α, IL-1β, IL-2, TGF-β, IFN-γ, and IL-10, were measured using an ELISA kit (Shenzhen Ziker Biological Technology, Shenzen, China). Briefly, culture supernatants of cells and serum of pulmonary metastasis mouse model were respectively collected and added to an antibody pre-coated 96-well plates, and then followed up according to the manufacturer's instructions.
# For pulmonary metastasis assays, 6- to 8-week-old female BALB/c mice were administered with 5 × 10^5 B16F10-Luc cells via tail vein to establish an experimental pulmonary metastasis model of melanoma. CY12-RP2 was administered to the mice intravenously at high and low doses (25 mg/kg and 100 mg/kg) every two days, and the mice were sacrificed after 15 days of treatment. Pulmonary metastases were evaluated using bioluminescence imaging on the 2nd, 5th, 10th, 15th and 20th day after B16F10-Luc cells injection. Subsequently, the BALB/c mice were sacrificed, and the organs including the heart, liver, spleen, lung, and kidney were collected and imaged for evaluation of micrometastases. The xenografts and organs were kept in a 4% paraformaldehyde solution for subsequent histological assays.
smiles,measurement,setting,value
CC(C)C[C@H](NC(=O)[C@H](Cc1ccc(O)cc1)NC(=O)[C@@H](N)[C@@H](C)O)C(=O)N[C@@H](CS)C(=O)N[C@H](C(=O)N[C@@H](C)C(=O)N[C@@H](CS)C(=O)N[C@@H](CC(=O)O)C(=O)N[C@@H](Cc1ccc(O)cc1)C(=O)N[C@H](C(=O)N[C@@H](Cc1c[nH]cn1)C(=O)N[C@@H](Cc1c[nH]cn1)C(=O)O)[C@@H](C)O)[C@@H](C)O [CY12-RP2] (H-TYLCTACDYTHH-OH; N-terminus and C-terminus assumed),fluorescence and co-localization with PDPN,[1],minimal fluorescence
same,apoptosis rate,[2],milder
same,viability of tumor cells with CY12-RP2-pretreated PBMC,[3],declined significantly
same,plasma IFN-γ,[4],significantly elevated
same,plasma IL-1β,[4],significantly elevated
same,plasma IL-2,[4],reduced
same,plasma IL-10,[4],reduced
same,plasma TGF-β,[4],reduced
same,plasma TNF-α,[4],significantly elevated
